Measured values from patent US11278561B2, “Combination treatment for hematological cancers” (Geron Corporation, priority 2016, dated 2022).

Tests used:
[1] = test system: KG-1 cells; assay: Annexin V / Propidium Iodide flow cytometry apoptosis assay in KG-1; type: cell-based; parameters: key to Excess over HSA / Excess over BLISS: excess in % apoptotic (Annexin V/PI double-labeled) cells over HSA/Bliss; conditions: for Excess over BLISS / Excess over HSA: imetelstat sodium μM: r7 50, r8 25, r9 10, r10 0
Experimental: AML tumor cells KG-1 (ATCC #CCL-246) and MOLM-13 (DSMZ #ACC554) were plated at a density of ˜20,000 cells per well on 96-well polystyrene U-bottom tissue culture plates (Corning catalog #353777) in RPMI-1640 (ThermoFisher catalog #11875-085) supplemented with 10% fetal bovine serum (ThermoFisher catalog #16140-089) and 1% penicillin/streptomycin antibiotic cocktail (ThermoFisher catalog 15140-122) and grown in a 37° C. incubator under humidified 5% CO2 atmosphere.
At 48 and 96 hours, cells were measured for healthy, early apoptotic and apoptotic populations with an Annexin V (interior cell membrane stain) plus Propidium Iodide (PI, DNA binding dye) flow cytometry assay kit (BioLegend catalog 640914). Annexin V detects the externalization of phosphatidylserine in apoptotic cells using recombinant annexin V conjugated to green-fluorescent FITC dye and dead cells using Propidium iodide (PI). Propidium iodide stains necrotic cells with red fluorescence. After treatment with both probes, early apoptotic cells show green fluorescence, apoptotic (dead) cells show red and green fluorescence, and live cells show little or no fluorescence. […] Cells were stained for 30 minutes at 4° C. in the dark, followed by 3× washes with PBS and suspension in FACs Stain Buffer (BD catalog 554657) prior to interrogation on a BD FACs Canto flow cytometer for forward scatter, side scatter, FITC, and PE channels. […] The percentage of apoptotic cells (double labeled) was used to calculate combination effects using both the Highest Single Agent (HSA) and Bliss additivity models (J Tang et al. Frontiers in Pharmacology. 2015; 6 (181)).
Using the HSA model, the cytotoxic effect of the combined condition (“C”) was compared to the effect generated by each of the single agent controls (“A” or “B”) for the respective dose in the combination: Excess over HSA=C−A (if A>B) or C−B (if A<B)
The Bliss model performs a similar comparison, but instead of the highest effect of single agent, the Bliss model subtracts from the combination a value equal to the sum of each single agent minus their product: Excess over Bliss=C−[(A+B)−(A*B)]

[2] = test system: CD45+ leukocytes from AML patient PBMCs; assay: ex vivo viability of AML patient PBMCs, CD45+ leukocytes; type: cell-based, human; conditions: 16-hour and 40-hour exposure; imetelstat sodium 25, 50 μM and/or venetoclax 20, 100 nM; mean of four patients
Experimental: AML cell lines (see Example 1) and AML patient peripheral blood mononuclear cell (“PBMC”) samples, which were obtained from AML patient whole blood after Ficoll purification, were treated with imetelstat sodium or venetoclax alone, or in combination, and viable and apoptotic populations of cells were evaluated by flow cytometry. Telomerase activity, hTERT expression and mitochondrial dysfunction were investigated for mechanism of action. […] Apoptosis was measured via flow cytometry staining for Annexin V and propidium iodide. Unstained (i.e. double negative) cells constitute viable cells remaining after treatment.
Specifically, whole blood from AML patients (n=4) was purified using Ficoll-Paque Plus (GE Healthcare catalog #17-1440-03) to purify PBMCs. […]
After 16- and 40-hours of treatment, cells were measured for healthy, early apoptotic and apoptotic populations with an Annexin V (interior cell membrane stain) plus propidium iodide (PI, DNA binding dye) flow cytometry assay kit (BioLegend catalog #640914) as described in the Example 1. […] Means and standard deviations were determined for the four patients for CD45^+ (leukocytes) and CD45^+/CD34^+ (leukemic stem cells) populations.

[3] = test system: MOLM-13 AML disseminated model; assay: MOLM-13 AML disseminated mouse model, survival; type: in vivo; conditions: MOLM-13 implanted SCID-beige mice; imetelstat sodium or MM 30 mg/kg ip TIW x 4 weeks, ABT-199 100 mg/kg po qd x 4 weeks
Experimental: An in vivo study in the MOLM-13 AML disseminated mouse model was conducted to assess efficacy and survival. Specifically, on day 0 of the study, MOLM-13 AML tumor cells were implanted into mice. […] The percent survival of the mice was assessed as a function of time (days post tumor cell implantation). The study lasted for a total of 108 days (77 days after stopping treatment).
Fifty female SCID-beige mice (6-week-old, Jackson Laboratory) were intravenously injected with 1 million MOLM-13 cells and randomly divided into five groups.
Mice were observed daily and body weights were measured twice a week. The survival of mice in each group was followed. The study was terminated on day 108, which was 77 days post last treatment. The increased life span (“ILS”) was evaluated for each group, and the % ILS versus the vehicle control was calculated as: % ILS=100×(T−C)/C where T is the median survival of the treatment group and C is the median survival of the control group.

CC1(C)CCC(CN2CCN(c3ccc(C(=O)NS(=O)(=O)c4ccc(NCC5CCOCC5)c([N+](=O)[O-])c4)c(Oc4cnc5[nH]ccc5c4)c3)CC2)=C(c2ccc(Cl)cc2)C1 [ABT-199, 4-[4-[[2-(4-chlorophenyl)-4,4-dimethylcyclohexen-1-yl]methyl]piperazin-1-yl]-N-[3-nitro-4-(oxan-4-ylmethylamino)phenyl]sulfonyl-2-(1H-pyrrolo [2,3-b]pyridin-5-yloxy)benzamide]
Excess over BLISS ([1]; KG-1, 48 hours (title of Table 6), ABT-199 1 nM): 0 | Excess over BLISS ([1]; KG-1, 48 hours (title of Table 6), ABT-199 5 nM): 0 | Excess over BLISS ([1]; KG-1, 48 hours (title of Table 6), ABT-199 20 nM): 0 | Excess over BLISS ([1]; KG-1, 48 hours (title of Table 6), ABT-199 100 nM): 0 | Excess over BLISS ([1]; KG-1, 48 hours (title of Table 6), ABT-199 500 nM): 0 | Excess over BLISS ([1]; KG-1, 48 hours, ABT-199 1 nM): 0 | Excess over HSA ([1]; KG-1, 48 hours, ABT-199 1 nM): 0 | Excess over BLISS ([1]; KG-1, 48 hours, ABT-199 5 nM): 0 | Excess over HSA ([1]; KG-1, 48 hours, ABT-199 5 nM): 0 | Excess over BLISS ([1]; KG-1, 48 hours, ABT-199 20 nM): 0 | Excess over HSA ([1]; KG-1, 48 hours, ABT-199 20 nM): 0 | % apoptotic cells (double label) ([1]; KG-1, 48 hours, ABT-199 100 nM): ~9% | Excess over BLISS ([1]; KG-1, 48 hours, ABT-199 100 nM): 0 | Excess over HSA ([1]; KG-1, 48 hours, ABT-199 100 nM): 0 | % apoptotic cells (double label) ([1]; KG-1, 48 hours, ABT-199 500 nM): ~14% | Excess over BLISS ([1]; KG-1, 48 hours, ABT-199 500 nM): 0 | Excess over HSA ([1]; KG-1, 48 hours, ABT-199 500 nM): 0 | Excess over HSA ([1]; KG-1, 96 hours, ABT-199 1 nM): 0 | Excess over HSA ([1]; KG-1, 96 hours, ABT-199 5 nM): 0 | Excess over HSA ([1]; KG-1, 96 hours, ABT-199 20 nM): 0 | % apoptotic cells (double label) ([1]; KG-1, 96 hours, ABT-199 100 nM): ~6% | Excess over HSA ([1]; KG-1, 96 hours, ABT-199 100 nM): 0 | % apoptotic cells (double label) ([1]; KG-1, 96 hours, ABT-199 500 nM): ~10% | Excess over HSA ([1]; KG-1, 96 hours, ABT-199 500 nM): 0 | viability of CD45+ leukocytes derived from AML patients [2]: only moderately impacted | % ILS (increased life span as compared to vehicle control) [3]: 36.3% | Median Survival [3]: 30 days
